# Source: patent US3958014A, “Process for preparing injection-purpose fluorocarbon emulsion capable of carrying oxygen” (The Green Cross Corporation, priority 1970, dated 1976)
# Assays:
# [1] = accumulation of intravenously injected fluorocarbon in liver and spleen; assay type: in vivo, laboratory animals; settings: for fluorocarbon administered remaining in the organs (liver and spleen): 8 weeks from administration
# Experimental: (§1) The present invention is specific in a number of aspects both as to the nature of materials used and the particle sizes and the like, of the resulting emulsion. These parameters were not arrived at casually but rather were determined through a systematic course of investigations which are discussed below. Parameters not expressly discussed below will be apparent to the skilled worker and appropriate conditions will be appreciated. Fluorocarbon - The sole fluorocarbons applicable to the present invention are perfluorodecalin or perfluoromethyldecalin or their mixture. A surfactant or emulsifying agent is also used and surfactant capable of emulsifying and stabilizing these fluorocarbons is egg yolk lecithin and preferably in an amount of from about 3 W/V % to 5 W/V % based on emulsion. There are a number of good reasons for the specificity of the fluorocarbon compounds that are useful.
# On the other hand when an emulsion of perfluorodecalin and perfluoromethyldecalin is injected into the veins, of laboratory animals their accumulated in the animal's liver and spleen is very small. For example, perfluorodecalin is as low as zero % and perfluoromethyldecalin is 1.5% even after 8 weeks.
# laboratory animal = experiment: toxicity on injection of fluorocarbon emulsion into veins; assay type: in vivo, laboratory animals; settings: emulsion injected into the veins
# Experimental: as §1
Compound,accumulation in the animal's liver and spleen ([1]; i.v. emulsion),fluorocarbon administered remaining in the organs (liver and spleen) ([1]; i.v. emulsion),toxicity (laboratory animal),lung hazard (laboratory animal),"accumulation in the animal's liver and spleen ([1]; in vivo, iv)"
"FC(F)(F)C(F)(F)C(F)(F)C(F)(F)N(C(F)(F)C(F)(F)C(F)(F)C(F)(F)F)C(F)(F)C(F)(F)C(F)(F)C(F)(F)F [FC-43, perfluorotributylamine]",most of these fluorocarbons are accumulated in the animal's liver and spleen,up to 40%,the toxicity resulting from the accumulation appears,,
"FC(F)(F)C(F)(F)C(F)(F)C(F)(F)C1(F)OC(F)(F)C(F)(F)C1(F)F (centres unmarked) [FX-80, perfluorobutyltetrahydrofuran]",,,its toxicity is quite high,a remarkable lung hazard appears,
"FC(OC(F)(F)C(F)(OC(F)(F)C(F)(OC(F)(F)C(F)(OC(F)(F)C(F)(F)C(F)(F)F)C(F)(F)F)C(F)(F)F)C(F)(F)F)C(F)(F)F (centres unmarked) [Freon E4, 2-monohydro-nonacosafluoro3,6,9,12-tetraoxa-5,8,11-trimethylpentadecane]",most of these fluorocarbons are accumulated in the animal's liver and spleen,up to 40%,the toxicity resulting from the accumulation appears,,
FC1(F)C(F)(F)C(F)(F)C2(F)C(F)(F)C(F)(F)C(F)(F)C(F)(F)C2(F)C1(F)F (centres unmarked) [perfluorodecalin],,,,,very small
perfluoromethyldecalin,very small,1.5%,,,
